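Compound exposure: 48 hours, 5 concentrations, 96-well plates. Here, GI50 denotes the concentration required for 50% inhibition of growth. TGI is the concentration that stops growth completely.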
Assays:
Assay in all cases: NCI anticancer screen, dose series, 48 h
MCF7 breast = test system: MCF7 breast
U251 CNS = test system: U251 CNS
UO-31 renal = test system: UO-31 renal
BT-549 breast = test system: BT-549 breast
M14 melanoma = test system: M14 melanoma
MDA-MB-435 = test system: MDA-MB-435
IGROV1 ovarian = test system: IGROV1 ovarian
K-562 leukemia = test system: K-562 leukemia
RPMI-8226 leukemia = test system: RPMI-8226 leukemia
SK-OV-3 ovarian = test system: SK-OV-3 ovarian

Compound	GI50 (MCF7 breast) [µM]	TGI (MCF7 breast) [µM]	GI50 (U251 CNS) [µM]	TGI (U251 CNS) [µM]	GI50 (UO-31 renal) [µM]	TGI (UO-31 renal) [µM]	GI50 (BT-549 breast) [µM]	TGI (BT-549 breast) [µM]	GI50 (M14 melanoma) [µM]	TGI (M14 melanoma) [µM]	GI50 (MDA-MB-435) [µM]	TGI (MDA-MB-435) [µM]	TGI (IGROV1 ovarian) [µM]	GI50 (K-562 leukemia) [µM]	GI50 (RPMI-8226 leukemia) [µM]	TGI (RPMI-8226 leukemia) [µM]	GI50 (SK-OV-3 ovarian) [µM]	TGI (SK-OV-3 ovarian) [µM]	GI50 (IGROV1 ovarian) [µM]	TGI (K-562 leukemia) [µM]
COc1cccc2c1C(=O)c1c(O)c3c(c(O)c1C2=O)C[C@@](O)(C(=O)CO)C[C@@H]3OC1CC(OC(C)=O)C(OC(C)=O)C(C)O1 (stereo partly drawn)	< 0.0284	7.64	0.275	7.93	0.258	1.99	0.386	4.29	0.529	2.26	1.27	4.63	3.91	0.868	0.226	2.11	0.83	6.5	–	–
COc1ccc(N2CCN(CN3CCN(c4ccc(OC)cc4)C3)C2)cc1	69.5	> 100	> 100	> 100	> 100	> 100	79.7	> 100	> 100	> 100	> 100	> 100	> 100	27.8	32.6	> 100	> 100	> 100	17	52.7
